According to patent US9120793B2, “Triazolo-pyridine compound” (Eli Lilly and Company, priority 2013, dated 2015):

Experiments:
Zucker fa/fa rats = test: Chronic oral glucose tolerance test (OGTT); format: in vivo, rat
Experimental: OGTTs are performed in Zucker fa/fa rats, a rodent model of insulin resistance, after 1 and 21 days of orally administered exemplified compound at 1.0, 3.0 and 10 mg/kg. A standard GPR-40 agonist at 1 mg/kg serves as the positive control. OGTTs are performed one hour post compound administration with blood samples taken for determination of glucose and insulin levels at 10, 20, 40, 60, and 120 minutes post glucose administration. […] Weight and food consumption are not altered due to any treatment during the study.

PPARα = target: T1, PPARα (Homo sapiens, UniProt Q07869); test: PPARα reporter (CTF)/functional assay in CV1 cells; format: cell-based; settings: examined up to 10 μM; efficacy <20% considered negative
T1 construct: expressed in transfected cells; host or cells: CV1 (African green monkey kidney)
T1 sequence (Q07869 239-466 limits assumed): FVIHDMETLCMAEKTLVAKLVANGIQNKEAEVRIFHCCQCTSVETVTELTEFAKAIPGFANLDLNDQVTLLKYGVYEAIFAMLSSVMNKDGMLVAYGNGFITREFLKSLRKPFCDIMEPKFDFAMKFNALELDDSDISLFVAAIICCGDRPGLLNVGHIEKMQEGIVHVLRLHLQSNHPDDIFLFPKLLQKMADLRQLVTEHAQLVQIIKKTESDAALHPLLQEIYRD
Excerpt: (§1) Because GPR-40 is known to be activated by ligands to PPARγ, exemplified compounds are examined in PPARα, PPARδ, and PPARγ reporter assays to determine the selectivity of an exemplified compound. CV1 cells, which are derived from the renal tissue of an African green monkey, are transfected with various receptor and reporter plasmids using Fugene. For the PPARα and PPARδ assays, a reporter plasmid containing five tandem copies of the yeast transcription protein Gal4 response element, cloned upstream of a firefly luciferase gene driven by the major late promoter of adenovirus, is transfected together with a Simian Virus 40 (SV40) driven plasmid constitutively expressing a hybrid protein containing the Gal4 DNA binding domain (DBD), and either the PPARα or PPARδ ligand binding domain. For the PPARγ assay, plasmids encoding PPARγ and RXRα, both driven by a cytomegalovirus (CMV) promoter are transfected together with a plasmid containing luciferase reporter cDNA driven by the TK promoter and a receptor response element (2×PPRE). […] After 24 hours incubation with compound, cells are lysed and luciferase activity is determined as a measure of receptor activation by luminescence. […] The maximum percent stimulation is determined versus maximum stimulation obtained with 10 μM of an appropriate PPAR agonist reference compound. […]

PPARγ = target: T2, PPARγ (Homo sapiens, UniProt P37231); test: PPARγ reporter (CTF)/functional assay in CV1 cells; format: cell-based
T2 construct: expressed in transfected cells; host or cells: CV1 (African green monkey kidney)
T2 sequence (P37231 1-505): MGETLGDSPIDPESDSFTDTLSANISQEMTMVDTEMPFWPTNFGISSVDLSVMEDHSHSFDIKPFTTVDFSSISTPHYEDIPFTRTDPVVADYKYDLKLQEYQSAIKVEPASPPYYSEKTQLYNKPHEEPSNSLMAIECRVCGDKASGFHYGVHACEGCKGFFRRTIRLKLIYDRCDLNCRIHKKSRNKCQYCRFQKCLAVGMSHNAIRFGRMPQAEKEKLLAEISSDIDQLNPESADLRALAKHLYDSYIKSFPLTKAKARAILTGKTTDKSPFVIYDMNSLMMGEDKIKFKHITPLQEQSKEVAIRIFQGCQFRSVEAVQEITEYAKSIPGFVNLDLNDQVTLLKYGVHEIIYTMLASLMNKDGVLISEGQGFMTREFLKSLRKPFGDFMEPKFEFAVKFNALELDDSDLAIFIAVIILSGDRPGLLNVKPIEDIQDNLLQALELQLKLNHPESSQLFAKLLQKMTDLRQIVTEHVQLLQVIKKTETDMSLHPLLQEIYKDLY
T2 sequence (P19793 1-462 partner): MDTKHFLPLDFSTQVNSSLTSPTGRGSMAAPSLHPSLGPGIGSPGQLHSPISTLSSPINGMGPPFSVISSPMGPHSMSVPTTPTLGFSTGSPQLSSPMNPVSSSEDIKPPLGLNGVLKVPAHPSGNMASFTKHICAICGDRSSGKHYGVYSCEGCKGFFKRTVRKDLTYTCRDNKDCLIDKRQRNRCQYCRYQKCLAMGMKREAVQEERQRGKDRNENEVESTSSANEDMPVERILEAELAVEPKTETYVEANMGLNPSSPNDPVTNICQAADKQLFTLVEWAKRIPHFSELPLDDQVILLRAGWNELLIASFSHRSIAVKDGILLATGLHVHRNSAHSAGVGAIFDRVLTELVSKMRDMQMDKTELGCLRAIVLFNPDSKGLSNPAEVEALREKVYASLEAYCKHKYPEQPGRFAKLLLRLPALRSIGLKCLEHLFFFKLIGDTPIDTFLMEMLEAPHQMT
Excerpt: as §1

## CC#C[C@@H](CC(=O)O)c1ccc(OCc2ccc3nc(-c4c(C)cccc4C)nn3c2)cc1 [Example 1, (3S)-3-[4-[[2-(2,6-Dimethylphenyl)-[1,2,4]triazolo[1,5-a]pyridin-6-yl]methoxy]phenyl]hex-4-ynoic acid]
Zucker fa/fa rats; 21 days oral administration, any treatment
  Weight and food consumption: not altered
Zucker fa/fa rats; day 1, oral
  ED90 for glucose lowering: 4.1 mg/kg
Zucker fa/fa rats; day 21, oral
  ED90 for glucose lowering: 5.0 mg/kg
Zucker fa/fa rats; days 1 and 21, oral 1, 3 and 10 mg/kg, p<0.05
  AUCs for glucose lowering: statistically significant
Zucker fa/fa rats; oral 1, 3 and 10 mg/kg, values not statistically significant
  Insulin AUCs during the OGTTs: dose dependent elevation
PPARα
  functional activation of PPARα: No functional activation
PPARγ; CV1 cells, luciferase reporter, 24 hours
  EC50: 2600 nM
PPARγ; CV-1, versus 10 μM PPAR agonist reference compound, <20% considered negative, read-out: % efficacy in PPARγ CTF assay
  Emax: 17%
